Results from PubChem BioAssay (NCI).
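Interpolation was linear, between the two tested concentrations surrounding the appropriate level; five concentrations were tested over 48 hours in 96-well plates. Here, GI50 denotes the concentration required for 50% inhibition of growth. At the TGI there is no net growth.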

How the values were obtained:
Assay in all cases: DTP human tumour cell line panel, 48 h
SF-268 CNS = system: SF-268 CNS
SF-295 CNS = system: SF-295 CNS
M14 melanoma = system: M14 melanoma
786-0 renal = system: 786-0 renal
NCI-H226 lung = system: NCI-H226 lung
NCI-H522 lung = system: NCI-H522 lung
BT-549 breast = system: BT-549 breast
HS 578T breast = system: HS 578T breast
HL-60(TB) leukemia = system: HL-60(TB) leukemia
TK-10 renal = system: TK-10 renal
UACC-62 melanoma = system: UACC-62 melanoma
DU-145 prostate = system: DU-145 prostate
MDA-MB-435 = system: MDA-MB-435
KM12 colon = system: KM12 colon
OVCAR-3 ovarian = system: OVCAR-3 ovarian
SK-MEL-2 melanoma = system: SK-MEL-2 melanoma
RXF 393 renal = system: RXF 393 renal
SF-539 CNS = system: SF-539 CNS
CAKI-1 renal = system: CAKI-1 renal
MOLT-4 leukemia = system: MOLT-4 leukemia
CCRF-CEM leukemia = system: CCRF-CEM leukemia
HT29 colon = system: HT29 colon
T-47D breast = system: T-47D breast
OVCAR-8 ovarian = system: OVCAR-8 ovarian
PC-3 prostate = system: PC-3 prostate
A549 NSCLC = system: A549 NSCLC
LOX IMVI melanoma = system: LOX IMVI melanoma
A498 renal = system: A498 renal
SR leukemia = system: SR leukemia
SW-620 colon = system: SW-620 colon
UACC-257 melanoma = system: UACC-257 melanoma
NCI-H23 lung = system: NCI-H23 lung
HCT-15 colon = system: HCT-15 colon
HOP-92 NSCLC = system: HOP-92 NSCLC
SK-OV-3 ovarian = system: SK-OV-3 ovarian
HCC-2998 colon = system: HCC-2998 colon
NCI-H460 lung = system: NCI-H460 lung
UO-31 renal = system: UO-31 renal
U251 CNS = system: U251 CNS
MDA-MB-231 breast = system: MDA-MB-231 breast
OVCAR-4 ovarian = system: OVCAR-4 ovarian
EKVX NSCLC = system: EKVX NSCLC
HCT-116 colon = system: HCT-116 colon
SN12C renal = system: SN12C renal
COLO 205 colon = system: COLO 205 colon
OVCAR-5 ovarian = system: OVCAR-5 ovarian
ACHN renal = system: ACHN renal
RPMI-8226 leukemia = system: RPMI-8226 leukemia
IGROV1 ovarian = system: IGROV1 ovarian
NCI/ADR-RES ovarian = system: NCI/ADR-RES ovarian
HOP-62 NSCLC = system: HOP-62 NSCLC
K-562 leukemia = system: K-562 leukemia
MALME-3M melanoma = system: MALME-3M melanoma
SK-MEL-5 melanoma = system: SK-MEL-5 melanoma
SK-MEL-28 melanoma = system: SK-MEL-28 melanoma
SNB-75 CNS = system: SNB-75 CNS

C=C1C(=O)O[C@H]2[C@H]1CC/C(COC(=O)NCCCCNC(=O)OC/C1=C/CC[C@@]3(C)O[C@H]3[C@H]3OC(=O)C(=C)[C@@H]3CC1)=C\CC[C@@]1(C)O[C@@H]21
GI50 (SF-268 CNS): 3.18 µM
TGI (SF-268 CNS): 12.6 µM
GI50 (SF-295 CNS): 13 µM
TGI (SF-295 CNS): 27.4 µM
GI50 (M14 melanoma): 1.97 µM
TGI (M14 melanoma): 4.82 µM
GI50 (786-0 renal): 1.99 µM
TGI (786-0 renal): 4.26 µM
GI50 (NCI-H226 lung): 11.4 µM
TGI (NCI-H226 lung): 30.5 µM
GI50 (NCI-H522 lung): 0.167 µM
TGI (NCI-H522 lung): 0.375 µM
GI50 (BT-549 breast): 1.6 µM
TGI (BT-549 breast): 3.63 µM
GI50 (HS 578T breast): 2.54 µM
TGI (HS 578T breast): 8.14 µM
GI50 (HL-60(TB) leukemia): 0.256 µM
TGI (HL-60(TB) leukemia): 1.08 µM
GI50 (TK-10 renal): 1.61 µM
TGI (TK-10 renal): 4.12 µM
GI50 (UACC-62 melanoma): 0.753 µM
TGI (UACC-62 melanoma): 2.5 µM
GI50 (DU-145 prostate): 3.21 µM
TGI (DU-145 prostate): 10.5 µM
GI50 (MDA-MB-435): 1.24 µM
TGI (MDA-MB-435): 3.41 µM
GI50 (KM12 colon): 3.18 µM
TGI (KM12 colon): 10.5 µM
GI50 (OVCAR-3 ovarian): 0.693 µM
TGI (OVCAR-3 ovarian): 2.01 µM
GI50 (SK-MEL-2 melanoma): 1.77 µM
TGI (SK-MEL-2 melanoma): 4.89 µM
GI50 (RXF 393 renal): 1.44 µM
TGI (RXF 393 renal): 3.36 µM
GI50 (SF-539 CNS): 1.55 µM
TGI (SF-539 CNS): 3.71 µM
GI50 (CAKI-1 renal): 10.8 µM
TGI (CAKI-1 renal): 23 µM
GI50 (MOLT-4 leukemia): 1.47 µM
TGI (MOLT-4 leukemia): 4.15 µM
GI50 (CCRF-CEM leukemia): 0.272 µM
TGI (CCRF-CEM leukemia): 0.845 µM
GI50 (HT29 colon): 0.605 µM
TGI (HT29 colon): 2.05 µM
GI50 (T-47D breast): 1.51 µM
TGI (T-47D breast): 4.17 µM
GI50 (OVCAR-8 ovarian): 2.18 µM
TGI (OVCAR-8 ovarian): 8.26 µM
GI50 (PC-3 prostate): 2.55 µM
TGI (PC-3 prostate): 8.05 µM
GI50 (A549 NSCLC): 8.01 µM
TGI (A549 NSCLC): 23.1 µM
GI50 (LOX IMVI melanoma): 0.519 µM
TGI (LOX IMVI melanoma): 1.92 µM
GI50 (A498 renal): 6.36 µM
TGI (A498 renal): 18.9 µM
GI50 (SR leukemia): 0.549 µM
TGI (SR leukemia): 3.51 µM
GI50 (SW-620 colon): 0.586 µM
TGI (SW-620 colon): 2.04 µM
GI50 (UACC-257 melanoma): 1.68 µM
TGI (UACC-257 melanoma): 4.99 µM
GI50 (NCI-H23 lung): 2.18 µM
TGI (NCI-H23 lung): 5.54 µM
GI50 (HCT-15 colon): 5.61 µM
TGI (HCT-15 colon): 20.8 µM
GI50 (HOP-92 NSCLC): 0.287 µM
TGI (HOP-92 NSCLC): 1.06 µM
GI50 (SK-OV-3 ovarian): 12.7 µM
TGI (SK-OV-3 ovarian): 25.3 µM
GI50 (HCC-2998 colon): 2.35 µM
TGI (HCC-2998 colon): 4.78 µM
GI50 (NCI-H460 lung): 4.61 µM
TGI (NCI-H460 lung): 18 µM
GI50 (UO-31 renal): 7.61 µM
TGI (UO-31 renal): 20.9 µM
GI50 (U251 CNS): 2.94 µM
TGI (U251 CNS): 9.83 µM
GI50 (MDA-MB-231 breast): 1.53 µM
TGI (MDA-MB-231 breast): 3.24 µM
GI50 (OVCAR-4 ovarian): 1.77 µM
TGI (OVCAR-4 ovarian): 8.53 µM
GI50 (EKVX NSCLC): 3.69 µM
TGI (EKVX NSCLC): 13.5 µM
GI50 (HCT-116 colon): 1.12 µM
TGI (HCT-116 colon): 2.63 µM
GI50 (SN12C renal): 2.75 µM
TGI (SN12C renal): 10.1 µM
GI50 (COLO 205 colon): 0.466 µM
TGI (COLO 205 colon): 1.8 µM
GI50 (OVCAR-5 ovarian): 1.75 µM
TGI (OVCAR-5 ovarian): 3.69 µM
GI50 (ACHN renal): 3.44 µM
TGI (ACHN renal): 12.9 µM
GI50 (RPMI-8226 leukemia): 0.547 µM
TGI (RPMI-8226 leukemia): 3.08 µM
GI50 (IGROV1 ovarian): 3.32 µM
TGI (IGROV1 ovarian): 12.4 µM
GI50 (NCI/ADR-RES ovarian): 37.7 µM
TGI (NCI/ADR-RES ovarian): > 100 µM
GI50 (HOP-62 NSCLC): 3.84 µM
TGI (HOP-62 NSCLC): 14 µM
GI50 (K-562 leukemia): 0.665 µM
TGI (K-562 leukemia): 10.4 µM
GI50 (MALME-3M melanoma): 0.452 µM
TGI (MALME-3M melanoma): 2.19 µM
GI50 (SK-MEL-5 melanoma): 3.33 µM
TGI (SK-MEL-5 melanoma): 11.8 µM
GI50 (SK-MEL-28 melanoma): 0.529 µM
TGI (SK-MEL-28 melanoma): 2.3 µM
GI50 (SNB-75 CNS): 2.19 µM
TGI (SNB-75 CNS): 16.5 µM
